# Laboratory results reported in US20120083522A1, “MODULATION OF INFLAMMATORY RESPONSES BY FACTOR XI” (Isis Pharmaceuitcals, inc., priority 2009, published 2012).
# Key:
# [1] = test system: human Factor XI mRNA; assay: Dose-dependent inhibition in HepG2 cells, lipofectin (Example 5); type: cell-based; conditions: 16 hours
# Procedure: Cells were plated at a density of 10,000 cells per well and transfected using lipofectin reagent with 2.34 nM, 4.69 nM, 9.375 nM, 18.75 nM, 37.5 nM, and 75 nM concentrations of antisense oligonucleotide, as specified in Table 11. After a treatment period of approximately 16 hours, RNA was isolated from the cells and human Factor XI mRNA levels were measured by quantitative real-time PCR. Human Factor XI primer probe set RTS 2966 was used to measure mRNA levels. Factor XI mRNA levels were adjusted according to total RNA content, as measured by RIBOGREEN®. Results are presented as percent inhibition of human Factor XI, relative to untreated control cells.
# [2] = test system: human Factor XI mRNA; assay: Dose-dependent inhibition in HepG2 cells, electroporation (Example 5); type: cell-based; conditions: approx. 16 h, relative to untreated control cells
# Procedure: The gapmers were also transfected via electroporation and their dose dependent inhibition of human Factor XI mRNA was measured. Cells were plated at a density of 20,000 cells per well and transfected via electroporation with 625 nM, 1250 nM, 2500 nM, 5,000 nM, 10,000 nM, and 20,000 nM concentrations of antisense oligonucleotide, as specified in Table 12. After a treatment period of approximately 16 hours, RNA was isolated from the cells and human Factor XI mRNA levels were measured by quantitative real-time PCR. Human Factor XI primer probe set RTS 2966 was used to measure mRNA levels. Factor XI mRNA levels were adjusted according to total RNA content, as measured by RIBOGREEN®. Results are presented as percent inhibition of human Factor XI, relative to untreated control cells.
# [3] = test system: human Factor XI mRNA; assay: Dose-dependent inhibition in HepB3 cells, electroporation (Example 7); type: cell-based; conditions: approx. 16 h
# Procedure: The gapmers were also transfected via electroporation and their dose dependent inhibition of human Factor XI mRNA was measured. Cells were plated at a density of 20,000 cells per well and transfected via electroporation with 41.15 nM, 123.457 nM, 370.37 nM, 1111.11 nM, 3333.33 nM, and 10,000 nM concentrations of antisense oligonucleotide, as specified in Table 15. After a treatment period of approximately 16 hours, RNA was isolated from the cells and human Factor XI mRNA levels were measured by quantitative real-time PCR. Human Factor XI primer probe set RTS 2966 was used to measure mRNA levels. Factor XI mRNA levels were adjusted according to total RNA content, as measured by RIBOGREEN®. Results are presented as percent inhibition of human Factor XI, relative to untreated control cells.
# [4] = test system: human Factor XI mRNA; assay: Antisense inhibition in HepG2 cells by microwalk gapmers, 8,000 nM, electroporation (Example 14); type: cell-based; conditions: HepG2 cells, 8,000 nM
# Summary of the method: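 HepG2 cells electroporated with 8,000 nM 2′-MOE phosphorothioate gapmer (5-10-5, 5-8-5 or 6-8-6). Factor XI mRNA measured after ~24 h by qRT-PCR, normalised to RIBOGREEN total RNA. Reported as percent inhibition versus untreated cells.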
# [5] = Tolerability in Sprague-Dawley rats: kidney function (Example 19); type: in vivo; conditions: Sprague Dawley rats; for urine protein/creatinine ratio, After: after 50 mg/kg s.c. twice per week for 6 weeks; for urine protein/creatinine ratio, Before: before antisense oligonucleotide treatment
# From the text: Urine samples were taken before the start of treatment.
Substance,"percent inhibition of human Factor XI mRNA, relative to untreated control cells ([1]; 2.34 nM) [%]","percent inhibition of human Factor XI mRNA, relative to untreated control cells ([1]; 4.69 nM) [%]","percent inhibition of human Factor XI mRNA, relative to untreated control cells ([1]; 9.375 nM) [%]","percent inhibition of human Factor XI mRNA, relative to untreated control cells ([1]; 18.75 nM) [%]","percent inhibition of human Factor XI mRNA, relative to untreated control cells ([1]; 37.5 nM) [%]","percent inhibition of human Factor XI mRNA, relative to untreated control cells ([1]; 75 nM) [%]",percent inhibition of human Factor XI mRNA ([2]; 625 nM) [%],percent inhibition of human Factor XI mRNA ([2]; 1250 nM) [%],percent inhibition of human Factor XI mRNA ([2]; 2500 nM) [%],percent inhibition of human Factor XI mRNA ([2]; 5000 nM) [%],percent inhibition of human Factor XI mRNA ([2]; 10000 nM) [%],percent inhibition of human Factor XI mRNA ([2]; 20000 nM) [%],percent inhibition of human Factor XI mRNA ([3]; 41.15 nM) [%],percent inhibition of human Factor XI mRNA ([3]; 123.457 nM) [%],percent inhibition of human Factor XI mRNA ([3]; 370.37 nM) [%],percent inhibition of human Factor XI mRNA ([3]; 1111.11 nM) [%],percent inhibition of human Factor XI mRNA ([3]; 3333.33 nM) [%],percent inhibition of human Factor XI mRNA ([3]; 10000 nM) [%],Percent inhibition of human Factor XI mRNA levels [4] [%],"urine protein/creatinine ratio, After [5]",also measured
"416825 (antisense GCCCTTCATGTCTAGGTCCA; 5-10-5 gapmer, wing sugar chemistry not given here, further chemistry not given here) [compound 416825]",4,22,39,57,79,89,69,84,91,94,96,97,32,40,48,75,90,92,90,5.4,"urine protein/creatinine ratio, Before [5]: 1.1"
"416850 (antisense TGCACAGTTTCTGGCAGGCC; 5-10-5 gapmer, wing sugar chemistry not given here, further chemistry not given here) [compound 416850]",24,31,49,55,70,77,69,80,87,90,93,96,26,38,51,73,90,95,91,4.0,"urine protein/creatinine ratio, Before [5]: 1.0"
"416858 (antisense ACGGCATTGGTGCACAGTTT; 5-10-5 gapmer, wing sugar chemistry not given here, further chemistry not given here) [compound 416858]",11,35,46,61,75,77,65,77,87,89,93,93,23,45,52,64,87,92,90,4.4,"urine protein/creatinine ratio, Before [5]: 0.9"
"416864 (antisense GGCAGCGGACGGCATTGGTG; 5-10-5 gapmer, wing sugar chemistry not given here, further chemistry not given here) [compound 416864]",13,34,42,65,68,80,45,74,84,87,92,94,4,3,6,35,75,87,88,4.0,"urine protein/creatinine ratio, Before [5]: 1.2"
